Assay results taken from patent publication US20220049238A1, “Synthetic Matrix Assembled and Rapidly Templated Spheroids, Organoids and 3D Cell Cultures” (Rutgers, The State University of New Jersey, priority 2020, published 2022).

Tested on: IPSC-NSC
Assay: Neuronal differentiation of hybrid spheroids with DAPT loaded on nanosheets (qPCR, immunostaining)
Assay type: cell-based
Procedure: Lastly, because Mn^2+ ions are MRI active, they could be used for MRI monitoring of degradation and drug release. A 7-day degradation study was performed, and it was shown that the Mn2+ ions generated correlated with the amount of the fluorescent model drug that was released, showing that the drug was released through the degradation of the scaffold nanosheets. After confirming the drug loading and degradation properties of the scaffold nanosheets and the hybrid spheroids, varying concentrations of DAPT were then loaded on the surface of the nanosheets at […] of from 0 to 50 μM. The spheres were cultured for 7 days and then the neuronal differentiation was analyzed using both qPCR and immunostaining.

[1] = day 7, loaded concentration of 5 and 10 μM

**Q.** Which cell death (50 μM condition) does the source give for C[C@H](NC(=O)Cc1cc(F)cc(F)c1)C(=O)N[C@H](C(=O)OC(C)(C)C)c1ccccc1 [DAPT, N-[N-(3,5-difluorophenacetyl)-L-alanyl]-S-phenylglycine t-butyl ester] here?
**A.** The cell death was “significant cell death”.

**Q.** What about the neurogenesis (50 μM condition) of the same molecule?
**A.** Its neurogenesis is “impaired neurogenesis”.

**Q.** What about the “Tuj1 positive cells by immunostaining” value [1] of the same molecule?
**A.** Its value is “significant increase in Tuj1 positive cells”.

**Q.** What about the axon length [1] of the same molecule?
**A.** The axon length was “longer axons”.

**Q.** And the “increase in mRNA expression of Tuj1” value [1]?
**A.** Its value is “ca. 1.8 fold”.

**Q.** And the “mature phenotype markers Map2 and NeuN (qPCR and immunostaining)” value [1]?
**A.** Its value is “increase in mature phenotype markers”.
